{
  "source": "patent US12728104B2",
  "about": "“Therapeutic methods for preventing tumor metastasis and tumor recurrence” (LUNELLA BIOTECH, INC., priority 2020, dated 2026)",
  "key": {"MDA-MB-231 tumor growth": {"system": "MDA-MB-231 tumor growth", "test": "Tumor growth assay, MDA-MB-231 cells on the chorio-allantoic membrane (CAM) in chicken eggs", "format": "in vivo, human", "conditions": "treated daily for 8 days", "description": "To experimentally evaluate their functional effects in vivo, the inventors used MDA-MB-231 cells and the well-established chorio-allantoic membrane (CAM) assay in chicken eggs, to quantitatively measure tumor growth and metastasis. An inoculum of 1×10^6 MDA-MB-231 cells was added onto the CAM of each egg (day E9) and then eggs were randomized into groups. On day E10, tumors were detectable and they were then treated daily for 8 days with vehicle alone (1% DMSO in PBS) or the three Mitoriboscin compounds. In parallel, the inventors also evaluated the activity of another mitochondrial inhibitor, namely butene-1,4-bis-triphenyl-phosphonium (Bis-TPP), which was identified as an inhibitor of 3D-mammosphere formation in MCF7 cells, with an IC-50 of less than 0.5 μM.\nAfter 8 days of drug administration (on day E18), all tumors were weighed, and the lower CAM was collected to evaluate the number of metastatic cells, as analyzed by qPCR with specific primers for Human Alu sequences.\n(§1) a) Preparation of Chicken Embryos. Fertilized White Leghorn eggs were incubated at 37.5° C. with 50% relative humidity for 9 days. At that moment (E9), the chorioallantoic membrane (CAM) was dropped down by drilling a small hole through the eggshell into the air sac, and a 1 cm^2 window was cut in the eggshell above the CAM (19-23).\nb) Amplification and Grafting of Tumor Cells. […]"}, "MDA-MB-231 cells": {"system": "MDA-MB-231 cells", "conditions": "cited from earlier work"}, "MDA-MB-231 metastasis": {"system": "MDA-MB-231 metastasis", "test": "Metastasis assay, MDA-MB-231 cells in the CAM assay (qPCR for Human Alu sequences in lower CAM)", "format": "in vivo", "description": "MDA-MB-231 cells and the CAM assay in chicken eggs were used to quantitatively measure spontaneous tumor mestastasis. An inoculum of 1×10^6 MDA-MB-231 cells was added onto the CAM of each egg (on day E9) and then eggs were then randomized into groups. On day E10, tumors were detectable and they were then treated daily for 8 days with vehicle alone (1% DMSO in PBS) or the four mitochondrial inhibitors. After 8 days of drug administration, the lower CAM was collected to evaluate the number of metastatic cells, as analyzed by qPCR with specific primers for Human Alu sequences. […] The same procedure may be used to evaluate the anti-metastasis and anti-recurrence effects of other mitochondrial inhibitors.\nas §1\nb) Amplification and Grafting of Tumor Cells. The MDA-MB-231 tumor cell line was cultivated in DMEM medium supplemented with 10% FBS and 1% penicillin/streptomycin. On day E9, cells were detached with trypsin, washed with complete medium and suspended in graft medium. An inoculum of 1×10^6 cells was added onto the CAM of each egg (E9) and then eggs were randomized into groups (19-23).\nd) Metastasis Assays. On day E18, a 1 cm^2 portion of the lower CAM was collected to evaluate the number of metastatic cells in 8 samples per group (n=8). Genomic DNA was extracted from the CAM (commercial kit) and analyzed by qPCR with specific primers for Human Alu sequences. Calculation of Cq for each sample, mean Cq and relative amounts of metastases for each group are directly managed by the Bio-Rad® CFX Maestro software. A one-way ANOVA analysis with post-tests was performed on all the data (19-23)."}, "MCF7 cells": {"system": "MCF7 cells", "conditions": "cited from earlier work"}, "chick embryo": {"system": "chick embryo", "test": "Embryo tolerability assay (chick embryo toxicity)", "format": "in vivo", "conditions": "for Alive / Dead: number of embryos", "description": "a) Preparation of Chicken Embryos. […] At that moment (E9), the chorioallantoic membrane (CAM) was dropped down by drilling a small hole through the eggshell into the air sac, and a 1 cm^2 window was cut in the eggshell above the CAM (19-23).\ne) Embryo Tolerability Assay: Before each administration, the treatment tolerability was evaluated by scoring the number of dead embryos."}, "[1]": {"system": "CSCs in cell lines derived from 8 different cancer types", "conditions": "cell lines from 8 cancer types incl. MCF7, T47D, MDA-MB-231, MCF10.DCIS.COM; cited from earlier work"}},
  "note": "Entries after “also recorded” stand apart in the source; their conditions may differ.",
  "data": [
    {"compound": "O[C@@H]1[C@H](NCc2ccccc2)CCC[C@H]1Oc1ccccc1Oc1ccc(Cl)cc1", "note": "[23/G4]", "values": [
      {"measurement": "effect on MDA-MB-231 tumor growth", "setting": "MDA-MB-231 tumor growth", "result": "minor effects"},
      {"measurement": "blocking of cell migration, active concentration range", "setting": "MDA-MB-231 cells", "result": "low micro-molar range"},
      {"measurement": "effectiveness in CAM assay", "setting": "MDA-MB-231 metastasis; concentration of 0.5 mM", "result": "minimally effective"},
      {"measurement": "inhibition of metastasis", "setting": "MDA-MB-231 metastasis; higher concentrations 0.75 mM, 1 mM, 2 mM, CAM assay", "result": "70-75%"},
      {"measurement": "inhibition of 3D-mammosphere formation, active concentration range", "setting": "MCF7 cells", "result": "low micro-molar range"},
      {"measurement": "% Alive", "setting": "chick embryo; 0.5 mM", "result": 70, "unit": "%"},
      {"measurement": "% Dead", "setting": "chick embryo; 0.5 mM", "result": 30, "unit": "%"},
      {"measurement": "Alive", "setting": "chick embryo; 0.5 mM", "result": 7},
      {"measurement": "Dead", "setting": "chick embryo; 0.5 mM", "result": 3},
      {"measurement": "% Alive", "setting": "chick embryo; 0.75 mM", "result": 71.43, "unit": "%"},
      {"measurement": "% Dead", "setting": "chick embryo; 0.75 mM", "result": 28.57, "unit": "%"},
      {"measurement": "Alive", "setting": "chick embryo; 0.75 mM", "result": 10},
      {"measurement": "Dead", "setting": "chick embryo; 0.75 mM", "result": 4},
      {"measurement": "% Alive", "setting": "chick embryo; 1 mM", "result": 80, "unit": "%"},
      {"measurement": "% Dead", "setting": "chick embryo; 1 mM", "result": 20, "unit": "%"},
      {"measurement": "Alive", "setting": "chick embryo; 1 mM", "result": 12},
      {"measurement": "Dead", "setting": "chick embryo; 1 mM", "result": 3},
      {"measurement": "% Alive", "setting": "chick embryo; 2 mM", "result": 66.67, "unit": "%"},
      {"measurement": "% Dead", "setting": "chick embryo; 2 mM", "result": 33.33, "unit": "%"},
      {"measurement": "Alive", "setting": "chick embryo; 2 mM", "result": 10},
      {"measurement": "Dead", "setting": "chick embryo; 2 mM", "result": 5}
    ]},
    {"compound": "CC[C@H]1OC(=O)[C@H](C)[C@@H](O[C@H]2C[C@@](C)(OC)[C@@H](O)[C@H](C)O2)[C@H](C)[C@@H](O[C@@H]2O[C@H](C)C[C@H](N(C)C)[C@H]2O)[C@](C)(O)C[C@@H](C)CN(C)[C@H](C)[C@@H](O)[C@]1(C)O", "note": "[Azithromycin]", "values": [
      {"measurement": "inhibition of anchorage-independent propagation of CSCs", "setting": "[1]", "result": "effectively inhibit"}
    ]},
    {"compound": "C(=CC[P+](c1ccccc1)(c1ccccc1)c1ccccc1)C[P+](c1ccccc1)(c1ccccc1)c1ccccc1", "note": "[Bis-TPP, butene-1,4-bis-triphenyl-phosphonium]", "values": [
      {"measurement": "effect on MDA-MB-231 cancer metastasis", "setting": "MDA-MB-231 metastasis; CAM assay in chicken eggs, treated daily for 8 days", "result": "functional prevention of cancer metastasis; also recorded: significantly prevented metastasis"},
      {"measurement": "IC50", "setting": "MCF7 cells; read-out: IC-50, inhibition of 3D-mammosphere formation", "result": "< 500", "unit": "nM"},
      {"measurement": "% Alive", "setting": "chick embryo; 0.5 mM", "result": 58.33, "unit": "%"},
      {"measurement": "% Dead", "setting": "chick embryo; 0.5 mM", "result": 41.67, "unit": "%"},
      {"measurement": "Alive", "setting": "chick embryo; 0.5 mM", "result": 7},
      {"measurement": "Dead", "setting": "chick embryo; 0.5 mM", "result": 5}
    ]}
  ]
}
